According to article PMC11678162 (Pharmaceutics, 2024):
One block for each molecule: values may come before it. Bridge positions count the residues as written; N and C are the ends. Square brackets hold non-standard residues; d marks the D form. Peptide text beside a SMILES is read from it. pGlu = O=C1CC[C@@H](C(=O)O)N1

Columns and labels:
[1] = 25% fresh human serum in PBS (pH 7.4); settings: 37 °C, up to 24 h
[2] = tested on: human peripheral blood mononuclear cells (PBMC); test: Cytotoxicity, resazurin assay; type: cell-based; settings: RPMI-1640 + 10% FBS, 24 h of incubation
Experimental: The cytotoxic effect of the peptides was tested on human peripheral blood mononuclear cells (PBMC) using the resazurin assay. To perform the analysis, double serial dilutions of the studied peptides were performed in RPMI-1640 nutrient medium supplemented with 10% FBS in sterile 96-well flat-bottom polystyrene microplates (Nest, Wuxi, Jiangsu, China). Next, an equal volume of RPMI medium containing a suspension of freshly isolated PBMC was added to the peptide solution to a total volume of 100 μL and a cell concentration of 5 × 10^4 per well. The plates were incubated for 20 h in a CO2 incubator (5% CO2, 37 °C) and then 5 µL of resazurin solution was added at a concentration of 0.1 mg/mL, after which the incubation was continued for 4 h. The fluorescence of the formed resorufin was measured using an AF2200 microplate reader (Eppendorf, Germany) using the following channel: λExc = 535 nm; λem = 595 nm. The fluorescence signal in the wells containing cells cultured without peptides was taken as a 100% cell viability. Wells containing no cells were used as a negative control. Experimental data were obtained in two independent experiments performed in triplicate.

[3] = tested on: freshly isolated human erythrocytes (hRBCs); test: Hemolysis (hemoglobin release assay); type: cell-based; settings: 4% hRBCs, 1.5 h of incubation
Experimental: Hemolytic activity was determined using freshly isolated human erythrocytes (hRBCs) according to a previously published method. Isotonic phosphate buffer (PBS) and 0.1% Triton X-100 were used as controls for the absence of lysis and complete disintegration of hRBCs, respectively.

serum = settings: cited from earlier work
Stability in serum = type: in vitro ADME, human; settings: 37 °C
Experimental: The serum stability of DsGom was determined in 25% fresh human serum in PBS (pH 7.4), as described previously. Briefly, 20 μL of aqueous peptide stock solution (5 mg/mL) was added to 480 μL of serum solution and incubated for 0, 2, 8, and 24 h at 37 °C. After incubation, serum proteins were selectively precipitated from the mixture by adding 10% TFA in the presence of 3.75 M of urea. Subsequently, the samples were stored at 0 °C for 30 min and centrifuged at 30,000× g for 10 min. Equal volumes of supernatants after serum protein precipitation were analyzed by analytical HPLC (Symmetry 300 C18 column, Waters, Milford, MA, USA) and MALDI-TOF MS. The amount of the intact peptide was estimated from the corresponding peak area on the HPLC chromatogram. For each peptide, two independent experiments were performed in triplicate. The comparison of the results and statistical processing were performed using GraphPad Prism 6.0 (GraphPad Software, Boston, MA, USA).

cleaved bond [1]: Arg1-C2, minor, 8 h
Molecule: RCHRVCYHKHCVQYC

Molecule: CC(C)[C@@H]1NC(=O)[C@@H]2CSSC[C@H](NC(=O)[C@H](C(C)C)NC(=O)[C@H](CCCNC(=N)N)NC(=O)[C@H](CCCNC(=N)N)NC(=O)[C@@H](NC(=O)[C@@H](N)CCCNC(=N)N)CSSC[C@@H](C(=O)O)NC(=O)[C@H](Cc3ccc(O)cc3)NC(=O)[C@H](CCC(N)=O)NC1=O)C(=O)N[C@@H](Cc1ccc(O)cc1)C(=O)N[C@@H](CCCCN)C(=O)N[C@@H](CCCCN)C(=O)N[C@@H](Cc1c[nH]cn1)C(=O)N2 [DS5] (H-RCRRVCYKKHCVQYC-OH; disulfide 2-15, 6-11)
cytotoxic effects on PBMC (in words) [2]: significantly enhanced cytotoxic effects on PBMC

Molecule: CC(C)[C@@H]1NC(=O)[C@@H]2CSSC[C@H](NC(=O)[C@H](C(C)C)NC(=O)[C@H](CCCNC(=N)N)NC(=O)[C@H](CCCNC(=N)N)NC(=O)[C@@H](NC(=O)[C@@H](N)CCCNC(=N)N)CSSC[C@@H](C(=O)O)NC(=O)[C@H](Cc3ccc(O)cc3)NC(=O)[C@H](CCC(N)=O)NC1=O)C(=O)N[C@@H](Cc1ccc(O)cc1)C(=O)N[C@@H](CCCCN)C(=O)N[C@@H](CCCCN)C(=O)N[C@@H](CCCNC(=N)N)C(=O)N2 [DS7] (H-RCRRVCYKKRCVQYC-OH; disulfide 2-15, 6-11)
cytotoxic effects on PBMC (in words) [2]: significantly enhanced cytotoxic effects on PBMC

Molecule: CC(C)C[C@@H]1NC(=O)[C@H](CCCNC(=N)N)NC(=O)[C@H](CCCNC(=N)N)NC(=O)[C@@H](NC(=O)[C@@H]2CCC(=O)N2)CSSC[C@@H](C(=O)N[C@@H](CO)C(=O)NCC(=O)N[C@@H](CCCNC(=N)N)C(=O)O)NC(=O)[C@H](Cc2ccc(O)cc2)NC(=O)[C@H]([C@@H](C)O)NC(=O)[C@H](CC(C)C)NC(=O)[C@@H]2CSSC[C@H](NC1=O)C(=O)N[C@@H](Cc1ccccc1)C(=O)N[C@@H](CCCNC(=N)N)C(=O)N[C@@H](CC(N)=O)C(=O)N[C@@H](CCCNC(=N)N)C(=O)N2 [Gom-2] ([pGlu]CRRLCFRNRCLTYCSGR-OH; disulfide 2-15, 6-11)
hemolytic activity (in words) ([3]; compared to gomesin): significantly higher grade of hemolytic activity

Molecule: ZCRRLCYKQRCVTYCRGR
not cleaved (serum): quite stable in the presence of serum enzymes

Molecule: CC(C)[C@@H]1NC(=O)[C@@H]2CSSC[C@H](NC(=O)[C@H](C(C)C)NC(=O)[C@H](CCCNC(=N)N)NC(=O)[C@H](Cc3c[nH]cn3)NC(=O)[C@@H](NC(=O)[C@@H](N)CCCNC(=N)N)CSSC[C@@H](C(=O)O)NC(=O)[C@H](Cc3ccc(O)cc3)NC(=O)[C@H](CCC(N)=O)NC1=O)C(=O)N[C@@H](Cc1ccc(O)cc1)C(=O)N[C@@H](Cc1c[nH]cn1)C(=O)N[C@@H](CCCCN)C(=O)N[C@@H](Cc1c[nH]cn1)C(=O)N2 [DsGom] (H-RCHRVCYHKHCVQYC-OH; disulfide 2-15, 6-11)
grade of hemolysis ([3]; 128 µM peptide, 0.1% Triton X-100 = complete lysis, two independent experiments): ~ 1%
remaining at 24 h, 0.2 mg/mL (Stability in serum; 25% fresh human serum in PBS (pH 7.4), 20 μL of 5 mg/mL stock in 480 μL, TFA/urea precipitation, HPLC peak area (0 h = 100%), two independent experiments in triplicate, read-out: initial amount of peptide remaining intact): ≥ 90%
percentage of the form without the N-terminal arginine residue in the main peak (Stability in serum; 25% human serum in PBS, 24 h, MALDI MS of the HPLC fraction): < 10%
